Data taken from patent US5196094A, “Separation of 1,1,1-trichloroethane from the lower alcohols by extractive distillation” (priority 1991, dated 1993).

What was measured:
[1] = Vapor-liquid equilibrium still, separation of 1,1,1-trichloroethane from 2-butanol; format: physicochemical
[2] = Vapor-liquid equilibrium still, separation of 1,1,1-trichloroethane from ethanol; format: physicochemical; details: 1,1,1-trichloroethane from ethanol
[3] = Vapor-liquid equilibrium still, separation of 1,1,1-trichloroethane from n-propanol; format: physicochemical
[4] = Vapor-liquid equilibrium still, separation of 1,1,1-trichloroethane from t-butanol; format: physicochemical
[5] = Vapor-liquid equilibrium still, separation of 1,1,1-trichloroethane from methanol; format: physicochemical
[6] = minimum boiling azeotrope with 1,1,1-trichloroethane; cited from earlier work
[7] = Vapor-liquid equilibrium still, separation of 1,1,1-trichloroethane from isopropanol; format: physicochemical
[8] = Run in glass perforated plate rectification column, methanol; format: physicochemical; details: 1 h
Description: A solution comprising 250 grams of the 1,1,1-trichloroethane-methanol azeotrope was placed in the stillpot of a 7.3 theoretical plate glass perforated plate rectification column. […] The temperature of the extractive agent as it entered the top of the column was 65° C. After establishing the feed rate of the extractive agent, the heat input to the 1,1,1-trichloroethane-methanol in the stillpot was adjusted to give a total reflux rate of 40 ml/min. After 1.5 hours operation, overhead and bottoms samples were collected and analysed by gas chromatography. The overhead analysis was 90.2% 1,1,1-trichloroethane, 9.8% methanol and the bottoms analysis was 0.8% 1,1,1-trichloroethane, 99.2% methanol.

[9] = Run in glass perforated plate rectification column, isopropanol; format: physicochemical
Description: (§1) A solution comprising 250 grams of the 1,1,1-trichloroethane-isopropanol azeotrope was placed in the stillpot of the 7.3 theoretical plate rectification column. […] The temperature of the extractive agent as it entered the top of the column was 73° C. After establishing the feed rate of the extractive agent, the heat input to the 1,1,1-trichloroethane-isopropanol in the stillpot was adjusted to give a total reflux rate of 40 ml/min. After 1.5 hours operation, overhead and bottoms samples were collected and analysed.

[10] = Run in glass perforated plate rectification column, n-propanol; format: physicochemical
Description: A solution comprising 250 grams of the 1,1,1-trichloroethane-n-propanol azeotrope was placed in the stillpot of the 7.3 theoretical plate rectification column. […] The temperature of the extractive agent as it entered the top of the column was 75° C. After establishing the feed rate of the extractive agent, the heat input to the 1,1,1-trichloroethane […] in the stillpot was adjusted to give a total reflux rate of 40 ml/min. After 1.5 hours operation, overhead and bottoms samples were collected and analysed. […] This gives an average relative volatility of 2.33 for each theoretical plate.

[11] = Run in glass perforated plate rectification column, ethanol; format: physicochemical; details: 1 h
Description: as §1, with “1,1,1-trichloroethane ethanol” for “1,1,1-trichloroethane-isopropanol”, “70°” for “73°”

[12] = Run in glass perforated plate rectification column, 2-butanol; format: physicochemical
Description: A solution comprising 250 grams of the 1,1,1-trichloroethane-2-butanol azeotrope was placed in the stillpot of the 7.3 theoretical plate rectification column. […] The temperature of the extractive agent as it entered the column was 83° C. After establishing the feed rate of the extractive agent, the heat input to the 1,1,1-trichloroethane-2-butanol in the stillpot as adjusted to give a total reflux rate of 40 ml/min. After 1.5 hours operation, overhead and bottoms samples were collcted and analysed. The overhead analysis was 99.7% 1,1,1-trichloroetahne, 0.3% 2-butanol and the bottoms analysis was 55.1% 1,1,1-trichloroethane, 44.9% 2-butanol. This gives an average relative volatility of 2.15 for each theoretical plate.

[13] = Run in glass perforated rectification column, t-butanol; format: physicochemical
Description: A solution comprising 250 grams of the 1,1,1-trichloroethane-t-butanol azeotrope was placed in the stillpot of the 7.3 theoretical plate rectification column. […] The temperature of the extractive agent as it entered the top of the column was 80° C. After establishing the feed rate of the extractive agent, the heat input to the 1,1,1-trichloroethane-t-butanol in the stillpot was adjusted to give a total reflux rate of 40 ml/min. After 1.5 hours operation, overhead and bottoms samples were collected and analysed. The overhead analysis was 95.7% 1,1,1-trichloroethane, 4.3% t-butanol and the bottoms analysis was 33.5% 1,1,1-trichloroethane, 66.5% t-butanol. This gives an average relative volatility of 1.68 for each theoretical plate.

[14] = 1,1,1-trichloroethane from t-butanol
[15] = 1,1,1-trichloroethane from methanol, vapor-liquid equilibrium still
[16] = 1,1,1-trichloroethane from 2-butanol, vapor-liquid equilibrium still
[17] = 1,1,1-trichloroethane from n-propanol, vapor-liquid equilibrium still
[18] = […], average for each theoretical plate
[19] = 70 g azeotrope, 30 g agent, refluxed eight hours

## COCCOCCO [Diethylene glycol methyl ether]
[1]
  Relative Volatility: 3.0
[2]
  Relative Volatility: 3.3
[3]
  Relative Volatility: 2.7
[4]; [14]
  Relative Volatility: 2.2
[5]; [15]
  Relative Volatility: 3.3

## CCCO [n-propanol]
[6]
  1,1,1-trichloroethane content of azeotrope: 85%

## CC(=O)OCCOC(C)=O [Ethylene glycol diacetate]
[2]
  Relative Volatility: 1.7
[3]
  Relative Volatility: 1.7
[4]; [14]
  Relative Volatility: 1.3

## CC(C)O [isopropanol]
[6]
  1,1,1-trichloroethane content of azeotrope: 80%

## CCCCCCOCCOCCO [Diethylene glycol hexyl ether]
[1]; [16]
  Relative Volatility: 2.3
[3]; [17]
  Relative Volatility: 2.0
[4]; [14]
  Relative Volatility: 1.5
[5]; [15]
  Relative Volatility: 4.2

## COC(=O)c1ccccc1O [Methyl salicylate]
[1]
  Relative Volatility: 1.3
[7]; * Brings Isopropanol out as Overhead, vapor-liquid equilibrium still
  Relative Volatility: 1.45
[2]
  Relative Volatility: 1.55
[3]
  Relative Volatility: 1.3
[4]; * Brings out t-Butanol as Overhead
  Relative Volatility: 1.3

## O=S1(=O)CCCC1 [Sulfolane]
[1]
  Relative Volatility: 2.7
[7]
  Relative Volatility: 1.4
[2]
  Relative Volatility: 2.2
[4]; [14]
  Relative Volatility: 1.4

## CCCCO [1-Butanol]
[2]
  Relative Volatility: 3.5
[3]; [17]
  Relative Volatility: 3.9
[4]; [14]
  Relative Volatility: 2.7

## COCCO [Ethylene glycol methyl ether]
[1]
  Relative Volatility: 4.5
[2]
  Relative Volatility: 1.95
[3]
  Relative Volatility: 4.4
[4]; [14]
  Relative Volatility: 3.1

## CCC(C)O (stereo not shown) [2-Butanol]
[2]
  Relative Volatility: 2.0
[6]
  1,1,1-trichloroethane content of azeotrope: 90%
  azeotrope boiling point: 70.5 °C

## CC(C)CO [Isobutanol]
[2]
  Relative Volatility: 1.35
[3]
  Relative Volatility: 2.2
[4]; [14]
  Relative Volatility: 1.2

## CCOCCO [Ethylene glycol ethyl ether]
[1]
  Relative Volatility: 3.1
[2]
  Relative Volatility: 2.5
[3]
  Relative Volatility: 3.6
[4]; [14]
  Relative Volatility: 2.2

## CO [methanol]
[6]
  1,1,1-trichloroethane content of azeotrope: 20%
  azeotrope boiling point: 61 °C

## C[S+](C)[O-] [Dimethylsulfoxide]
[1]
  Relative Volatility: 2.2
[8]
  Relative Volatility: 2.13
[8]; bottoms
  Weight % CH3 CCl3: 3.5%
  Weight % Methanol: 96.5%
[8]; overhead
  Weight % CH3 CCl3: 90.2%
  Weight % Methanol: 9.8%
[7]
  Relative Volatility: 2.5
[9]; 1 h
  Relative Volatility: 2.5
[9]; [18]
  Relative Volatility: 2.2
[9]; bottoms, 1 h
  Weight % CH3 CCl3: 27.8%
  Weight % Isopropanol: 72.2%
[9]; overhead, 1 h
  Weight % CH3 CCl3: 99.6%
  Weight % Isopropanol: 0.4%
[10]; 1 h
  Relative Volatility: 2.17
[10]; [18]
  Relative Volatility: 2.33
[10]; bottoms, 1 h
  Weight % CH3 CCl3: 40%
  Weight % n-Propanol: 60%
[10]; overhead, 1 h
  Weight % CH3 CCl3: 99.5%
  Weight % n-Propanol: 0.5%
[11]
  Relative Volatility: 2.1
[11]; bottoms
  Weight % CH3 CCl3: 13.6%
  Weight % Ethanol: 86.4%
[11]; overhead
  Weight % CH3 CCl3: 97.3%
  Weight % Ethanol: 2.7%
[3]; [17]
  Relative Volatility: 2.3
[4]; [14]
  Relative Volatility: 1.7
[12]; 1 h
  Relative Volatility: 2.1
[12]; [18]
  Relative Volatility: 2.15
[12]; bottoms, 1 h
  Weight % 2-Butanol: 46.9%
  Weight % CH3 Cl3: 53.1%
[12]; overhead, 1 h
  Weight % 2-Butanol: 0.4%
  Weight % CH3 Cl3: 99.6%
[13]; 1 h
  Relative Volatility: 1.68
[13]; [18]
  Relative Volatility: 1.68
[13]; bottoms, 1 h
  Weight % CH3 CCl3: 43.4%
  Weight % t-Butanol: 56.6%
[13]; overhead, 1 h
  Weight % CH3 CCl3: 97.1%
  Weight % t-Butanol: 2.9%
[5]; [19]
  liquid composition, 1,1,1-trichloroethane: 11%
  liquid composition, methanol: 89%
  vapor composition, 1,1,1-trichloroethane: 24.2%
  vapor composition, methanol: 75.8%

## COCC(C)O (stereo not shown) [Propylene glycol methyl ether]
[1]; [16]
  Relative Volatility: 3.9
[7]; 1,1,1-trichloroethane from isopropanol, vapor-liquid equilibrium still
  Relative Volatility: 2.3
[2]
  Relative Volatility: 2.0
[3]; [17]
  Relative Volatility: 4.2
[4]; [14]
  Relative Volatility: 1.7
[5]; [15]
  Relative Volatility: 3.1

## CCCCOCCO [Ethylene glycol butyl ether]
[1]; [16]
  Relative Volatility: 2.8
[3]; [17]
  Relative Volatility: 2.0
[4]; [14]
  Relative Volatility: 1.7
[5]; [15]
  Relative Volatility: 3.2

## CC(C)(C)O [t-butanol]
[6]
  1,1,1-trichloroethane content of azeotrope: 80%
  azeotrope boiling point: 66 °C

## CCO [ethanol]
[6]
  1,1,1-trichloroethane content of azeotrope: 75%
  azeotrope boiling point: 63 °C

## CC1COC(=O)O1 (stereo not shown) [Propylene carbonate]
[1]; [16]
  Relative Volatility: 2.4
[2]
  Relative Volatility: 2.2
[3]; [17]
  Relative Volatility: 2.0
[4]; [14]
  Relative Volatility: 1.5

## OCCOc1ccccc1 [Ethylene glycol phenyl ether]
[1]; [16]
  Relative Volatility: 2.0
[3]
  Relative Volatility: 2.5
[4]; [14]
  Relative Volatility: 1.3
[5]
  Relative Volatility: 3.1
